Legend:
Experiment in all cases: relative viability (nuclei count vs DMSO), 5 days (fraction); higher = more cells survive
NCI-H2228 = tested on: NCI-H2228
In short: (§1)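 Cells from lung cancer lines were seeded into 1536-well plates and, one day later, dosed by pin tool. Treatments were either a single drug or a fixed dose of an anchor drug with five library-drug doses (not always all listed) in √10 steps. After 5 days, nuclei were stained in a one-step fixation (final 0.05% Triton X-100, 1% formaldehyde, 1 ug/ml Hoechst) and counted on 4× images, and relative viability is the treated-to-vehicle nuclei ratio, as the median of duplicate plates.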

NCI-H2126 = tested on: NCI-H2126
In short: as §1

HCC-366 = tested on: HCC-366
In short: as §1

NCI-H1993 = tested on: NCI-H1993
In short: as §1

EMC-BAC-2 = tested on: EMC-BAC-2
In short: as §1

COR-L23 = tested on: COR-L23
In short: as §1

NCI-H1395 = tested on: NCI-H1395
In short: as §1

HCC-15 = tested on: HCC-15
In short: as §1

LC-2-ad = tested on: LC-2-ad
In short: as §1

SK-LU-1 = tested on: SK-LU-1
In short: as §1

HOP-62 = tested on: HOP-62
In short: as §1

NCI-H2023 = tested on: NCI-H2023
In short: as §1

NCI-H2405 = tested on: NCI-H2405
In short: as §1

NCI-H1944 = tested on: NCI-H1944
In short: as §1

HARA = tested on: HARA
In short: as §1

NCI-H358 = tested on: NCI-H358
In short: as §1

NCI-H1793 = tested on: NCI-H1793
In short: as §1

HCC-78 = tested on: HCC-78
In short: as §1

NCI-H838 = tested on: NCI-H838
In short: as §1

ChaGo-K-1 = tested on: ChaGo-K-1
In short: as §1

ABC-1 = tested on: ABC-1
In short: as §1

NCI-H23 = tested on: NCI-H23
In short: as §1

For COc1nc(C)cnc1NS(=O)(=O)c1cccnc1-c1ccc(-c2nnco2)cc1 [Zibotentan] + Cc1nc(Nc2ncc(C(=O)Nc3c(C)cccc3Cl)s2)cc(N2CCN(CCO)CC2)n1 [Dasatinib] (partner 0.075 µM), which relative viability (NCI-H2228; first compound 0.08 µM) is on record?
Its relative viability is 0.554.

And the relative viability (NCI-H2228; first compound 0.253 µM)?
The relative viability was 0.509.

And the relative viability (NCI-H2228; first compound 0.8 µM)?
Its relative viability is 0.495.

What about the relative viability (NCI-H2228; first compound 2.53 µM) of the same compound?
Its relative viability is 0.608.

And the relative viability (NCI-H2126; first compound 0.08 µM)?
The relative viability was 0.632.

And the relative viability (NCI-H2126; first compound 0.8 µM)?
The relative viability was 0.53.

What about the relative viability (NCI-H2126; first compound 2.53 µM) of the same compound?
The relative viability was 0.685.

And the relative viability (HCC-366; first compound 0.08 µM)?
The relative viability was 0.73.

What about the relative viability (HCC-366; first compound 0.253 µM) of the same compound?
Its relative viability is 0.584.

What about the relative viability (HCC-366; first compound 0.8 µM) of the same compound?
The relative viability was 0.359.

What about the relative viability (HCC-366; first compound 2.53 µM) of the same compound?
The relative viability was 0.652.

And the relative viability (NCI-H1993; first compound 0.08 µM)?
Its relative viability is 0.565.

And the relative viability (NCI-H1993; first compound 0.253 µM)?
The relative viability was 0.63.

What about the relative viability (NCI-H1993; first compound 0.8 µM) of the same compound?
The relative viability was 0.481.

And the relative viability (NCI-H1993; first compound 2.53 µM)?
Its relative viability is 0.741.

And the relative viability (EMC-BAC-2; first compound 0.08 µM)?
Its relative viability is 0.338.

What about the relative viability (EMC-BAC-2; first compound 0.8 µM) of the same compound?
Its relative viability is 0.295.

What about the relative viability (EMC-BAC-2; first compound 2.53 µM) of the same compound?
Its relative viability is 0.369.

And the relative viability (COR-L23; first compound 0.08 µM)?
Its relative viability is 0.502.

And the relative viability (COR-L23; first compound 0.253 µM)?
The relative viability was 0.485.

And the relative viability (COR-L23; first compound 0.8 µM)?
Its relative viability is 0.488.

What about the relative viability (COR-L23; first compound 2.53 µM) of the same compound?
The relative viability was 0.5.

And the relative viability (NCI-H1395; first compound 0.08 µM)?
Its relative viability is 0.409.

What about the relative viability (NCI-H1395; first compound 0.253 µM) of the same compound?
The relative viability was 0.403.

And the relative viability (NCI-H1395; first compound 0.8 µM)?
Its relative viability is 0.409.

And the relative viability (NCI-H1395; first compound 2.53 µM)?
The relative viability was 0.407.

What about the relative viability (HCC-15; first compound 0.08 µM) of the same compound?
Its relative viability is 0.601.

What about the relative viability (HCC-15; first compound 0.8 µM) of the same compound?
Its relative viability is 0.512.

What about the relative viability (HCC-15; first compound 2.53 µM) of the same compound?
The relative viability was 0.684.

And the relative viability (LC-2-ad; first compound 0.08 µM)?
Its relative viability is 0.688.

What about the relative viability (LC-2-ad; first compound 0.8 µM) of the same compound?
Its relative viability is 0.625.

And the relative viability (LC-2-ad; first compound 2.53 µM)?
Its relative viability is 0.511.

And the relative viability (SK-LU-1; first compound 0.08 µM)?
Its relative viability is 0.17.

What about the relative viability (SK-LU-1; first compound 0.253 µM) of the same compound?
The relative viability was 0.172.

What about the relative viability (SK-LU-1; first compound 0.8 µM) of the same compound?
Its relative viability is 0.189.

And the relative viability (SK-LU-1; first compound 2.53 µM)?
Its relative viability is 0.198.

What about the relative viability (HOP-62; first compound 0.08 µM) of the same compound?
The relative viability was 0.706.

And the relative viability (HOP-62; first compound 0.253 µM)?
The relative viability was 0.634.

And the relative viability (HOP-62; first compound 0.8 µM)?
Its relative viability is 0.719.

What about the relative viability (HOP-62; first compound 2.53 µM) of the same compound?
Its relative viability is 0.758.

And the relative viability (NCI-H2023; first compound 0.08 µM)?
The relative viability was 0.568.

And the relative viability (NCI-H2023; first compound 0.253 µM)?
The relative viability was 0.339.

What about the relative viability (NCI-H2023; first compound 0.8 µM) of the same compound?
Its relative viability is 0.476.

And the relative viability (NCI-H2023; first compound 2.53 µM)?
The relative viability was 0.64.

What about the relative viability (NCI-H2405; first compound 0.08 µM) of the same compound?
The relative viability was 0.238.

And the relative viability (NCI-H2405; first compound 0.253 µM)?
Its relative viability is 0.193.

What about the relative viability (NCI-H2405; first compound 0.8 µM) of the same compound?
The relative viability was 0.218.

What about the relative viability (NCI-H2405; first compound 2.53 µM) of the same compound?
Its relative viability is 0.212.

And the relative viability (NCI-H1944; first compound 0.08 µM)?
The relative viability was 0.193.

What about the relative viability (NCI-H1944; first compound 0.253 µM) of the same compound?
Its relative viability is 0.211.

What about the relative viability (NCI-H1944; first compound 0.8 µM) of the same compound?
The relative viability was 0.221.

What about the relative viability (NCI-H1944; first compound 2.53 µM) of the same compound?
The relative viability was 0.224.

What about the relative viability (HARA; first compound 0.08 µM) of the same compound?
Its relative viability is 0.239.

What about the relative viability (HARA; first compound 0.253 µM) of the same compound?
The relative viability was 0.227.

What about the relative viability (HARA; first compound 0.8 µM) of the same compound?
Its relative viability is 0.24.

And the relative viability (HARA; first compound 2.53 µM)?
Its relative viability is 0.243.

What about the relative viability (NCI-H358; first compound 0.08 µM) of the same compound?
Its relative viability is 0.175.

What about the relative viability (NCI-H358; first compound 0.253 µM) of the same compound?
The relative viability was 0.152.

And the relative viability (NCI-H358; first compound 0.8 µM)?
Its relative viability is 0.151.

And the relative viability (NCI-H358; first compound 2.53 µM)?
Its relative viability is 0.166.

What about the relative viability (NCI-H1793; first compound 0.08 µM) of the same compound?
The relative viability was 0.345.

What about the relative viability (NCI-H1793; first compound 0.253 µM) of the same compound?
The relative viability was 0.363.

What about the relative viability (NCI-H1793; first compound 0.8 µM) of the same compound?
Its relative viability is 0.406.

And the relative viability (NCI-H1793; first compound 2.53 µM)?
Its relative viability is 0.379.

And the relative viability (HCC-78; first compound 0.08 µM)?
The relative viability was 0.513.

What about the relative viability (HCC-78; first compound 0.253 µM) of the same compound?
The relative viability was 0.313.

And the relative viability (HCC-78; first compound 0.8 µM)?
The relative viability was 0.391.

And the relative viability (HCC-78; first compound 2.53 µM)?
Its relative viability is 0.309.

And the relative viability (NCI-H838; first compound 0.08 µM)?
The relative viability was 0.28.

What about the relative viability (NCI-H838; first compound 0.253 µM) of the same compound?
Its relative viability is 0.233.

And the relative viability (NCI-H838; first compound 0.8 µM)?
The relative viability was 0.283.

And the relative viability (NCI-H838; first compound 2.53 µM)?
The relative viability was 0.305.

And the relative viability (ChaGo-K-1; first compound 0.08 µM)?
Its relative viability is 0.604.

And the relative viability (ChaGo-K-1; first compound 0.253 µM)?
The relative viability was 0.646.

What about the relative viability (ChaGo-K-1; first compound 0.8 µM) of the same compound?
The relative viability was 0.498.

And the relative viability (ChaGo-K-1; first compound 2.53 µM)?
The relative viability was 0.626.

What about the relative viability (ABC-1; first compound 0.08 µM) of the same compound?
The relative viability was 0.568.

And the relative viability (ABC-1; first compound 0.253 µM)?
Its relative viability is 0.572.

And the relative viability (ABC-1; first compound 0.8 µM)?
Its relative viability is 0.548.

What about the relative viability (ABC-1; first compound 2.53 µM) of the same compound?
The relative viability was 0.556.

What about the relative viability (NCI-H23; first compound 0.08 µM) of the same compound?
The relative viability was 0.859.

What about the relative viability (NCI-H23; first compound 0.253 µM) of the same compound?
The relative viability was 0.711.

What about the relative viability (NCI-H23; first compound 0.8 µM) of the same compound?
Its relative viability is 0.553.

And the relative viability (NCI-H23; first compound 2.53 µM)?
The relative viability was 0.928.
